Reference: patent US20060035905A1, “Formulations of phosphodiesterase 5 inhibitors and methods of use” (Becton, Dickinson and Company, priority 2004, published 2006)
Read-outs that look alike come from different tables or passages of the source. Marks after values point to notes of the source that are not given here. One block for each compound: values may come before it.

Key:
in vivo = assay: in vivo; set-up: species or system Sprague-Dawley rats; details: rat
Method: Animal surgery: The rat's femoral vein was cannulated for blood sampling for every group. For IN rats, an incision was made in the trachea and a polypropylene tube was inserted as an airway. To seal the pass way between the nasal cavity and trachea, a sealed tube was inserted through the same incision into the posterior of nasal cavity. Finally the nasopalatine was closed with an adhesive.
Blood samples were drawn from the femoral vein at predetermined time points.
20 μl of 12% perchloric acid was added to 80 μl rat serum followed by vortexing. Then 100 μl of water was added to achieve the sample volume required by HPLC assay.

[1] = for Clearance: dose normalized; for Bioavailability: versus IV mesylate
[2] = IV, up to last sampling time point

Cmax (in vivo; Sprague-Dawley): 547 ng/mL
concentration at 5 min (in vivo; Sprague-Dawley): 428 ng/mL
time of maximum systemic concentration (in vivo; Sprague-Dawley): around 15 min
time of peak serum concentration (in vivo; Sprague-Dawley): approximately 10 minutes
Cmax (in vivo; Sprague-Dawley, Cmax): ~1000 ng/mL
time of Cmax (in vivo; sc): 30 to 60 min
Compound: CCCc1nn(C)c2c(=O)[nH]c(-c3cc(S(=O)(=O)N4CCN(C)CC4)ccc3OCC)nc12 [sildenafil]
maximum serum drug level (in words) (in vivo; sc): comparable maximum serum drug level to the ID group

Compound: sildenafil acetate
MRT ([1]; ID 1.5 mm): 1.85 h
Terminal t½ ([1]; ID 1.5 mm): 2.19 h

Compound: sildenafil mesylate
MRT ([1]; ID 1.5 mm): 1.90 h
Terminal t½ ([1]; ID 1.5 mm): 2.27 h
Tmax ([1]; ID 1.5 mm): 0.083^c hr
Clearance ([1]; ID 1.5 mm): 42.2835 mL/min/kg
AUC ([1]; ID 1.5 mm, up to last sampling time point): 116.21 ng·h/mL
Bioavailability ([1]; ID 1.5 mm): 56.95^c %
Bioavailability ([1]; ID 1.5 mm, listed as mesylate salt): ~55%
Cmax ([1]; ID 1.5 mm, ~5 mg sildenafil, average): 93.13 ng/mL
MRT ([1]; ID 2.0 mm): 2.27 h
Terminal t½ ([1]; ID 2.0 mm): 3.83 h
Tmax ([1]; ID 2.0 mm): 0.18 h
Clearance ([1]; ID 2.0 mm): 35.7202 mL/min/kg
AUC ([1]; ID 2.0 mm, up to last sampling time point): 133.56 ng·h/mL
Bioavailability ([1]; ID 2.0 mm): 66.79^c %
Cmax ([1]; ID 2.0 mm, ~5 mg sildenafil, average): 70.98 ng/mL
Terminal t½ ([1]; IV): 3.01 h
Clearance ([1]; IV): 23.558 mL/min/kg
AUC [1, 2]: 229.41 ng·h/mL
MRT [1, 2]: 1.90 h
Cmax ([1]; IV, ~5 mg sildenafil, average): 307.35 ng/mL
Tmax ([1]; IV, ~5 mg sildenafil, average): 0.0^b hr
MRT ([1]; SC): 2.43 h
Terminal t½ ([1]; SC): 2.84 h
Tmax ([1]; SC): 0.12 h
Clearance ([1]; SC): 45.6718 mL/min/kg
AUC ([1]; SC, up to last sampling time point): 120.13 ng·h/mL
Bioavailability ([1]; SC): 54.77^c %
Bioavailability ([1]; SC, listed as mesylate salt): ~55%
Cmax ([1]; SC, ~5 mg sildenafil, average): 111.28 ng/mL
